Data as given in patent US6420586B1 (priority 2000, dated 2002).

Legend:
Assay type in all cases: biochemical
[1] = system: Herpes Simplex Virus Protease
HIV protease = target: T1, HIV protease (Human immunodeficiency virus type 1 group M subtype B, UniProt P04585)
T1 construct: a key virally encoded protease enzyme of the pol gene

human cathepsin K = target: T2, human cathepsin K (Homo sapiens, UniProt P43235); experiment: Inhibition of human cathepsin K (fluorescence peptide assay); conditions: compound concentration 106 μmolar; pH 5.5, 10 μmolar peptide
T2 sequence (P43235 115-329): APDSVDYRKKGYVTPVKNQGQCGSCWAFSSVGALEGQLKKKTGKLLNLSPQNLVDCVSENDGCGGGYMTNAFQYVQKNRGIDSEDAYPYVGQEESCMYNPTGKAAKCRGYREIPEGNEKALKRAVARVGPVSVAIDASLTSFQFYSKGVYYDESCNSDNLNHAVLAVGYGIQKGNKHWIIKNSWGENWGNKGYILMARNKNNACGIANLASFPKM
Description: The inhibition of human cathepsin K by the compound shown in Scheme N (106 μmolar) was determined. The peptides utilized were chromophoric Z-Phe-Arg-pNA*HCl and fluorogenic Z-Phe-Arg-AMC (each available from BACHEM Bioscience, Inc.). Stock solutions were prepared with 100% dimethylsulfoxide (DMSO) and stored at −20° C.
The final assay conditions were 100 mM NaOAc, pH of 5.5, 10 mM (R,R)-dithiothreitol (DTT), 10% DMSO, 120 mM NaCl, 10 μmolar of the peptide, and 12.5-0.012 μmolar inhibitor in twofold serial dilutions from 20× stocks in 100% DMSO. The enzyme working solution was a 1:3000 dilution of […] human cathepsin K into 100 mM of NaOAc, pH of 5.5, 10 mM DTT, 1.2 M NaCl.
Serial dilutions were performed in 100% DMSO. Columns 2-12 of an intermediate plate were filled with […] of 100% DMSO and column 1 was filled with […]. Next, […] of a 10 mM solution was added to column 1. A twofold serial dilution was prepared in columns 1-11 of the intermediate plate by sequential transfer of […] of the contents of each well in a column to the corresponding well of the next column, with mixing between each transfer. […] The fluorescence was monitored every 6 minutes for 72 minutes using a CytoFluor Series 4000 PerSeptive Biosystems multi-well fluorescence plate reader with the following settings: gain=50; 20 reads/well; 32° C.; lex=360±20 nm; and lem=440±120 nm.

| Compound | inhibition of the protease [1] [%] | inhibition of the protease (HIV protease) [%] | inhibition of human cathepsin K (human cathepsin K) [%] |
| --- | --- | --- | --- |
| COP1(=O)N(Cc2ccccc2)CC=CCN1Cc1ccccc1 [Scheme K] | 25.5 | – | – |
| C=CCOP1(=O)OCC=CCN1[C@H](C(=O)OC)C(C)C (stereo partly drawn) [Scheme L] | 34.7 | – | – |
| COP1(=O)N[C@@H](C(C)C)C=C[C@H](C(C)C)O1 (stereo partly drawn) [Scheme M] | 33.5 | – | – |
| CC(C)(C)OC(=O)NC(Cc1ccccc1)CN1CC=CCN(C[C@H](Cc2ccccc2)NC(=O)OC(C)(C)C)P1(=O)Cl (stereo partly drawn) [Scheme N] | 44.4 | 23 | 34 |
